Patent US8017612B2, “Piperazine compound and use thereof as a HCV polymerase inhibitor” (priority 2006, dated 2011)
Counter-ions that a name gives are not always drawn.

Columns and labels:
[1] = target: T1, HCV polymerase (NS5B) type 1b (Hepatitis C virus genotype 1b, UniProt P26663); experiment: Assay of enzyme (HCV polymerase) inhibitory activity, type 1b enzyme; format: biochemical, HCV BK strain (type 1b)
T1 construct: a region encoding NS5B (J Virol 1991 March, 65(3), 1105-13, 544 amino acids after deletion of 47 amino acids on the C-terminal); 6xHis (C); made in house; host or cells: Escherichia coli
How it was run: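 NS5B from HCV BK strain (type 1b), C-terminal 47 aa deleted, C-terminal His6-tagged, E. coli-expressed, 0.5 μg/ml, with ~450 nt substrate RNA carrying the 3′ UTR (polyU, 3′X) at 5 μg/ml. Incubation 60 min at 25 °C with 50 μM ATP/GTP/CTP, 2 μM UTP plus [3H]UTP, pH 7.5 Tris.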

[2] = target: T2, HCV polymerase (NS5B) type 1a (Hepatitis C virus genotype 1a, UniProt P26664); experiment: Assay of enzyme (HCV polymerase) inhibitory activity, type 1a enzyme; format: biochemical, HCV type 1a (cloned from the blood of patients)
T2 construct: made in house; host or cells: Escherichia coli (by the 'similar method' of the 1b enzyme)
How it was run: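 Patient-derived type 1a NS5B (C-terminal 47-aa deletion, His-tagged, E. coli-expressed) at 1.5 μg/ml was reacted with 5 μg/ml 3′UTR-containing substrate RNA, 50 μM ATP/GTP/CTP, 2 μM UTP plus [3H]UTP, pH 7.5, 25° C for 60 min. TCA-precipitated RNA radioactivity was counted; IC50 from ± compound.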

[3] = HCV polymerase inhibitory activity IC50, 1b, type 1b enzyme
[4] = HCV polymerase inhibitory activity IC50, 1a, type 1a enzyme
[5] = HCV polymerase inhibitory activity (IC50), 1b, type 1b enzyme 0.5 μg/ml, 25° C., 60 min
[6] = HCV polymerase inhibitory activity (IC50), 1a, type 1a enzyme 1.5 μg/ml, 25° C., 60 min

Structure (SMILES) | IC50 [1, 3] [nM] | IC50 [2, 4] [nM] | IC50 [1, 5] [nM] | IC50 [2, 6] [nM]
CCCc1ccc(CNC(=O)[C@H]2CN(C(=O)Nc3ccccc3C(=O)OC)CCN2S(=O)(=O)c2ccc(OC(F)(F)F)cc2)cc1 [Example 831, 2-{[(R)-3-(4-propyl-benzylcarbamoyl)-4-(4-trifluoromethoxy-benzenesulfonyl)-piperazine-1-carbonyl]-amino}-benzoic acid methyl ester] | > 1000 | > 1000 | – | –
COC(=O)c1ncc(N2CCN(S(=O)(=O)c3ccc(C(F)(F)F)cc3)[C@@H](C(=O)NCc3ccc(C(C)C)cc3)C2)nc1N [Example 423, (R)-6′-amino-3-(4-isopropyl-benzylcarbamoyl)-4-(4-trifluoromethyl-benzenesulfonyl)-3,4,5,6-tetrahydro-2H-[1,2′]bipyrazinyl-5′-carboxylic acid methyl ester] | – | – | < 100 | < 100
CN(C)c1ccc(CNC(=O)[C@H]2CN(C(=O)CN)CCN2S(=O)(=O)c2ccc(I)cc2)cc1 [Example 157, (R)-4-(2-amino-acetyl)-1-(4-iodo-benzenesulfonyl)-piperazine-2-carboxylic acid 4-dimethylamino-benzylamide hydrochloride] | – | – | > 1000 | > 1000
CCCc1ccc(CNC(=O)[C@H]2CN(c3nc(C)c(C(O)C(=O)O)s3)CCN2S(=O)(=O)c2ccc(OC(F)(F)F)cc2)cc1 (stereo partly drawn) [Example 1092, hydroxy-{4-methyl-2-[(R)-3-(4-propyl-benzylcarbamoyl)-4-(4-trifluoromethoxy-benzenesulfonyl)-piperazin-1-yl]-thiazol-5-yl}-acetic acid] | < 100 | 100 to 1000 | – | –
N#Cc1ncc2sc(N3CCN(S(=O)(=O)c4ccc(C(F)(F)F)cc4)[C@@H](C(=O)NCc4ccc(OC(F)F)cc4)C3)nc2n1 [Example 1011, (R)-4-(5-cyano-thiazolo[4,5-d]pyrimidin-2-yl)-1-(4-trifluoromethyl-benzenesulfonyl)-piperazine-2-carboxylic acid 4-difluoromethoxy-benzylamide] | < 100 | < 100 | – | –
CCC(F)(F)c1ccc(CNC(=O)[C@H]2CN(C(=O)Nc3cc(C)no3)CCN2S(=O)(=O)c2ccc(OC(F)(F)F)cc2)cc1 [Example 528, (R)-4-(4-trifluoromethoxy-benzenesulfonyl)-piperazine-1,3-dicarboxylic acid 3-[4-(1,1-difluoro-propyl)-benzylamide] 1-[(3-methyl-isoxazol-5-yl)-amide]] | – | – | < 100 | 100 to 1000
CCCc1ccc(CNC(=O)[C@H]2CN(c3cnc(CO)c(N)n3)CCN2S(=O)(=O)c2ccc(OC(F)(F)F)cc2)cc1 [Example 549, (R)-6′-amino-5′-hydroxymethyl-4-(4-trifluoromethoxy-benzenesulfonyl)-3,4,5,6-tetrahydro-2H-[1,2′]bipyrazinyl-3-carboxylic acid 4-propyl-benzylamide] | – | – | < 100 | < 100
CC(=O)N1CCN(S(=O)(=O)c2ccc(C(C)C)cc2)[C@@H](C(=O)NCCc2ccc(Cl)cc2)C1 [Example 138, (R)-4-acetyl-1-(4-isopropyl-benzenesulfonyl)-piperazine-2-carboxylic acid [2-(4-chloro-phenyl)-ethyl]-amide] | – | – | > 1000 | > 1000
O=C(NCc1ccc(OC(F)F)cc1)[C@H]1CN(c2nc3nc(C(F)(F)F)ncc3s2)CCN1S(=O)(=O)c1ccc(OC(F)(F)C(F)F)cc1 [Example 1015, (R)-1-[4-(1,1,2,2-tetrafluoro-ethoxy)-benzenesulfonyl]-4-(5-trifluoromethyl-thiazolo[4,5-d]pyrimidin-2-yl)-piperazine-2-carboxylic acid 4-difluoromethoxy-benzylamide] | < 100 | < 100 | – | –
CCN(CC)c1ccc(CNC(=O)[C@H]2CN(c3nc(C)c(C(=O)O)s3)CCN2S(=O)(=O)c2ccc(OC(F)(F)F)cc2)cc1 [Example 425, 2-[(R)-3-(4-diethylamino-benzylcarbamoyl)-4-(4-trifluoromethoxy-benzenesulfonyl)-piperazin-1-yl]-4-methyl-thiazole-5-carboxylic acid] | – | – | < 100 | < 100
O=C(NCc1ccc(OC(F)(F)F)cc1)[C@H]1CN(C(=O)Nc2nnc(Br)s2)CCN1S(=O)(=O)c1ccc(OC(F)(F)F)cc1 [Example 936, (R)-4-(4-trifluoromethoxy-benzenesulfonyl)-piperazine-1,3-dicarboxylic acid 1-[(5-bromo-[1,3,4]thiadiazol-2-yl)-amide] 3-(4-trifluoromethoxy-benzylamide)] | > 1000 | > 1000 | – | –
O=C(NCc1ccc(C2CC2)cc1)[C@H]1CN(c2nc3nc(Cl)ncc3s2)CCN1S(=O)(=O)c1ccc(OC(F)(F)F)cc1 [Example 971, (R)-4-(5-chloro-thiazolo[4,5-d]pyrimidin-2-yl)-1-(4-trifluoromethoxy-benzenesulfonyl)-piperazine-2-carboxylic acid 4-cyclopropyl-benzylamide] | < 100 | < 100 | – | –
O=C(NCc1ccc(OC(F)F)cc1)[C@H]1CN(c2nc3nc(C(F)(F)F)ncc3s2)CCN1S(=O)(=O)c1ccc(OC(F)F)cc1 [Example 1005, (R)-1-(4-difluoromethoxy-benzenesulfonyl)-4-(5-trifluoromethyl-thiazolo[4,5-d]pyrimidin-2-yl)-piperazine-2-carboxylic acid 4-difluoromethoxy-benzylamide] | < 100 | < 100 | – | –
O=C(NCc1ccc(OC(F)(F)F)cc1)[C@H]1CN(C(=O)Cc2ccncc2)CCN1S(=O)(=O)c1ccc(OC(F)(F)F)cc1 [Example 409, (R)-4-(2-pyridin-4-yl-acetyl)-1-(4-trifluoromethoxy-benzenesulfonyl)-piperazine-2-carboxylic acid 4-trifluoromethoxy-benzylamide] | – | – | 100 to 1000 | 100 to 1000
CCCc1ccc(CNC(=O)[C@H]2CN(c3cnc4cccc(C(=O)O)c4n3)CCN2S(=O)(=O)c2ccc(CC)cc2)cc1 [Example 816, 3-[(R)-4-(4-ethyl-benzenesulfonyl)-3-(4-propyl-benzylcarbamoyl)-piperazin-1-yl]-quinoxaline-5-carboxylic acid] | < 100 | < 100 | – | –
CCC(F)(F)c1ccc(CNC(=O)[C@H]2CN(c3nc4ccncc4s3)CCN2S(=O)(=O)c2ccc(OC(F)(F)F)cc2)cc1 [Example 715, (R)-4-thiazolo[5,4-c]pyridin-2-yl-1-(4-trifluoromethoxy-benzenesulfonyl)-piperazine-2-carboxylic acid 4-(1,1-difluoro-propyl)-benzylamide] | < 100 | < 100 | – | –
CC(=O)N1CCN(S(=O)(=O)c2ccccc2)C(C(=O)NCc2ccc(C(F)(F)F)cc2)C1 (centres unmarked) [Example 24, 4-acetyl-1-benzenesulfonyl-piperazine-2-carboxylic acid 4-trifluoromethyl-benzylamide] | – | – | > 1000 | > 1000
O=C(O)c1cccc2ncc(N3CCN(S(=O)(=O)c4ccc(OC(F)(F)F)cc4)[C@@H](C(=O)NCc4ccc(OC(F)(F)F)cc4)C3)nc12 [Example 781, 3-[(R)-4-(4-trifluoromethoxy-benzenesulfonyl)-3-(4-trifluoromethoxy-benzylcarbamoyl)-piperazin-1-yl]-quinoxaline-5-carboxylic acid] | < 100 | < 100 | – | –
Cc1nc(Cl)c2sc(N3CCN(S(=O)(=O)c4ccc(OC(F)(F)F)cc4)[C@@H](C(=O)NCc4ccc(OC(F)(F)F)cc4)C3)nc2n1 [Example 907, (R)-4-(7-chloro-5-methyl-thiazolo[4,5-d]pyrimidin-2-yl)-1-(4-trifluoromethoxy-benzenesulfonyl)-piperazine-2-carboxylic acid 4-trifluoromethoxy-benzylamide] | < 100 | < 100 | – | –
CC(C)c1ccc(CNC(=O)[C@H]2CN(C(=N)N)CCN2S(=O)(=O)c2ccc(C(F)(F)F)cc2)cc1 [Example 313, (R)-4-carbamimidoyl-1-(4-trifluoromethyl-benzenesulfonyl)-piperazine-2-carboxylic acid 4-isopropyl-benzylamide hydrochloride] | – | – | < 100 | < 100
CCc1ccc(S(=O)(=O)N2CCN(c3cnc(C(=O)O)cn3)C[C@@H]2C(=O)NCc2ccc(C(C)(C)C)cc2)cc1 [Example 524, (R)-3-(4-tert-butyl-benzylcarbamoyl)-4-(4-ethyl-benzenesulfonyl)-3,4,5,6-tetrahydro-2H-[1,2′]bipyrazinyl-5′-carboxylic acid] | – | – | < 100 | < 100
Cc1n[nH]c(=O)c2sc(N3CCN(S(=O)(=O)c4ccc(OC(F)(F)F)cc4)[C@@H](C(=O)NCc4ccc(OC(F)(F)F)cc4)C3)nc12 [Example 839, (R)-4-(4-methyl-7-oxo-6,7-dihydro-thiazolo[4,5-d]pyridazin-2-yl)-1-(4-trifluoromethoxy-benzenesulfonyl)-piperazine-2-carboxylic acid 4-trifluoromethoxy-benzylamide] | < 100 | < 100 | – | –
